Measurements taken from patent US20020173538A1, “Method for sensitizing cancer cells to cancer therapies with a mevalonate-reducing compound” (priority 2000, published 2002).
Like-named read-outs stand apart in the source and are kept apart here.

Assays:
Hep 3B/T2 cells = assay: Tumor growth of Hep 3B/T2 cells in nude mice; format: in vivo, BALB/c-nu/nu nude mice
From the text: The descriptive statistics were summarized as mean±STD. For statistical analysis, Student's t-test was used to determine significance of mean differences between groups.

Hep G2 cells = assay: MTT cell viability assay, Hep G2 cells (serum-free DMEM); details: Homo sapiens
From the text: (§1) Human hepatoma cell lines Hep G2 and Hep 3 were chosen as the in vitro models of hepatocytes and hepatoma, respectively.

[1] = as above; details: human, Hep G2 cells, Cell viability
From the text: as §1

Hep 3B cells = assay: MTT cell viability assay, Hep 3B cells (serum-free DMEM); details: Homo sapiens, Hep3B
From the text: as §1

[2] = Cycle 2 (Day 63), LOV 37.5 mg/kg/day p.o. days 28-34 and 49-55 and/or taxol 120 μg/kg/2 day i.p. day 36, 38, 40, 57, 59, 61

CC(=O)O[C@H]1C(=O)[C@@]2(C)[C@H]([C@H](OC(=O)c3ccccc3)[C@]3(O)C[C@H](OC(=O)[C@H](O)[C@@H](NC(=O)c4ccccc4)c4ccccc4)C(C)=C1C3(C)C)[C@]1(OC(C)=O)CO[C@@H]1C[C@@H]2O [Taxol, paclitaxel]
Tumor size (Hep 3B/T2 cells; Cycle 1 (Day 42), LOV 37.5 mg/kg/day p.o. days 28-34 and 49-55 and/or taxol 120 μg/kg/2 day i.p. day 36, 38, 40, 57, 59, 61): 0.465 cm^3
Tumor size (Hep 3B/T2 cells; [2]): 1.424 cm^3
percentage of inhibition of tumor size (Hep 3B/T2 cells; [2]): (−43.1%
Tumor size (Hep 3B/T2 cells; Day 15, LOV 75 mg/kg/day p.o. days 8-14 and/or taxol 120 μg/kg/day i.p. days 15-19, n = 3): 0.125 cm^3
Tumor size (Hep 3B/T2 cells; Day 20, LOV 75 mg/kg/day p.o. days 8-14 and/or taxol 120 μg/kg/day i.p. days 15-19, n = 3): 0.047 cm^3
Tumor size (Hep 3B/T2 cells; Day 23, LOV 75 mg/kg/day p.o. days 8-14 and/or taxol 120 μg/kg/day i.p. days 15-19, n = 3): 0.037 cm^3
Tumor size (1 × w^2 × 0.52 cm^3) Day 28 (Hep 3B/T2 cells; Day 28 after inoculation of 1 × 10^7 Hep 3B/T2 cells in male BALB/c-nu/nu nude mice, p.o. lovastatin 37.5 mg/kg/day (days 28-34, 49-55) and/or i.p. taxol 120 μg/kg/2 day (days 36, 38, 40, 57, 59, 61), mean ± SEM): 0.170 cm^3
Tumor size (Hep 3B/T2 cells; after two cycles: lovastatin fed 7 days, then paclitaxel injected 3 days (FIG. 38), mean±STD): 1.43±0.46 cm^3
IC50 (Hep G2 cells; HepG2, 48 h, read-out: IC50 (cell viability), 48 hr, Table 8): 40.8 ± 7 nM
IC50 (Hep G2 cells; HepG2, 48 h, read-out: IC50 (cell viability), 48 hr, Table 9): 12.4 nM
IC50 (Hep G2 cells; HepG2, 72 h, read-out: IC50 (cell viability), 72 hr, Table 8): 7.8 ± 1 nM
IC50 (Hep G2 cells; HepG2, 72 h, read-out: IC50 (cell viability), 72 hr, Table 9): 7.8 nM
IC50 (Hep G2 cells; HepG2, 96 h, read-out: IC50 (cell viability), 96 hr): 3.6 nM
IC50 (Hep G2 cells; HepG2, 120 h, read-out: IC50 (cell viability), 120 hr): 3.5 nM
viability at 48 h, 2 nM ([1]; no lovastatin 48 hr, then taxol 2 nM 48 hr): 92.2 ± 1.5%
viability at 48 h, 5 nM ([1]; no lovastatin 48 hr, then taxol 5 nM 48 hr): 61.5 ± 2.2%
viability at 48 h, 10 nM ([1]; no lovastatin 48 hr, then taxol 10 nM 48 hr): 57.9 ± 3.3%
viability at 48 h, 2 nM ([1]; no lovastatin 72 hr, then taxol 2 nM 48 hr): 85.1 ± 1.9%
viability at 72 hr, 2 nM ([1]; no lovastatin 72 hr, then taxol 2 nM 72 hr): 77.7 ± 2.6%
viability at 48 h, 5 nM ([1]; no lovastatin 72 hr, then taxol 5 nM 48 hr): 64.2 ± 1.2%
viability at 72 h, 5 nM ([1]; no lovastatin 72 hr, then taxol 5 nM 72 hr): 65.8 ± 1.3%
viability at 48 h, 10 nM ([1]; no lovastatin 72 hr, then taxol 10 nM 48 hr): 60.5 ± 3.2%
viability at 72 h, 10 nM ([1]; no lovastatin 72 hr, then taxol 10 nM 72 hr): 63.6 ± 8.4%
viability at 96 h, 2 nM ([1]; taxol 2 nM alone, Table 10): 72.4 ± 6.9%
viability at 48 h, 2 nM ([1]; taxol 2 nM, 48 hr): 94.5 ± 5.4%
viability at 48 h, 2 nM ([1]; taxol 2 nM, 48 hr, Table 9): 88 ± 1.9%
viability at 72 h, 2 nM ([1]; taxol 2 nM, 72 hr): 89.2 ± 2.6%
viability at 72 h, 2 nM ([1]; taxol 2 nM, 72 hr, Table 9): 89.2 ± 2.6%
viability at 96 h, 2 nM ([1]; taxol 2 nM): 66.6 ± 3.5%
viability at 120 h, 2 nM ([1]; taxol 2 nM, 120 hr): 65.1 ± 0.9%
viability at 96 h, 5 nM ([1]; taxol 5 nM alone, Table 10): 49.3 ± 9.9%
viability at 48 h, 5 nM ([1]; taxol 5 nM, 48 hr): 72.9 ± 4%
viability at 48 h, 5 nM ([1]; taxol 5 nM, 48 hr, Table 9): 74.7 ± 2.3%
viability at 72 h, 5 nM ([1]; taxol 5 nM, 72 hr): 63.7 ± 2.3%
viability at 72 h, 5 nM ([1]; taxol 5 nM, 72 hr, Table 9): 63.7 ± 2.3%
viability at 96 h, 5 nM ([1]; taxol 5 nM): 36.2 ± 5.5%
viability at 120 h, 5 nM ([1]; taxol 5 nM, 120 hr): 33.8 ± 0.6%
viability at 96 h, 10 nM ([1]; taxol 10 nM alone, Table 10): 24.8 ± 2.5%
viability at 48 h, 10 nM ([1]; taxol 10 nM, 48 hr): 64.2 ± 3.8%
viability at 48 h, 10 nM ([1]; taxol 10 nM, 48 hr, Table 9): 58.1 ± 8.1%
viability at 72 h, 10 nM ([1]; taxol 10 nM, 72 hr): 39 ± 0.5%
viability at 72 h, 10 nM ([1]; taxol 10 nM, 72 hr, Table 9): 39 ± 0.5%
viability at 96 h, 10 nM ([1]; taxol 10 nM): 22.7 ± 4.1%
viability at 120 h, 10 nM ([1]; taxol 10 nM, 120 hr): 19 ± 3.4%
viability at 48 h, 20 nM ([1]; taxol 20 nM, 48 hr): 53.5 ± 1.1%
viability at 72 h, 20 nM ([1]; taxol 20 nM, 72 hr): 35.4 ± 3.6%
viability at 48 h, 50 nM ([1]; taxol 50 nM, 48 hr): 47 ± 2.3%
viability at 72 h, 50 nM ([1]; taxol 50 nM, 72 hr): 33.9 ± 3.7%
viability at 48 h, 100 nM ([1]; taxol 100 nM, 48 hr): 34.6 ± 9.1%
viability at 72 h, 100 nM ([1]; taxol 100 nM, 72 hr): 19.5 ± 4.6%
viability at 48 h, 200 nM ([1]; taxol 200 nM, 48 hr): 35.4 ± 5.5%
viability at 72 h, 200 nM ([1]; taxol 200 nM, 72 hr): 15.6 ± 5.8%
viability at 48 h, 500 nM ([1]; taxol 500 nM, 48 hr): 29.1 ± 4.2%
viability at 72 h, 500 nM ([1]; taxol 500 nM, 72 hr): 11 ± 5%
viability at 48 h, 1000 nM ([1]; taxol 1000 nM, 48 hr): 15 ± 3.9%
viability at 72 h, 1000 nM ([1]; taxol 1000 nM, 72 hr): 9.9 ± 4.9%
viability at 0.002 µM (Hep 3B cells; 48 h, read-out: Cell viability, taxol 2 nM, 48 hr): 93.1 ± 1.3%
viability at 0.002 µM (Hep 3B cells; 48 h, read-out: Cell viability, taxol 2 nM, 48 hr, Table 9): 97 ± 1.5%
viability at 0.005 µM (Hep 3B cells; 48 h, read-out: Cell viability, taxol 5 nM, 48 hr): 91.6 ± 0.5%
viability at 0.005 µM (Hep 3B cells; 48 h, read-out: Cell viability, taxol 5 nM, 48 hr, Table 9): 97.5 ± 3.1%
viability at 0.01 µM (Hep 3B cells; 48 h, read-out: Cell viability, taxol 10 nM, 48 hr): 87.1 ± 1.5%
viability at 0.01 µM (Hep 3B cells; 48 h, read-out: Cell viability, taxol 10 nM, 48 hr, Table 9): 89.1 ± 3%
viability at 0.02 µM (Hep 3B cells; 48 h, read-out: Cell viability, taxol 20 nM, 48 hr): 85.4 ± 0.9%
viability at 0.05 µM (Hep 3B cells; 48 h, read-out: Cell viability, taxol 50 nM, 48 hr): 83.5 ± 0.9%
viability at 0.1 µM (Hep 3B cells; 48 h, read-out: Cell viability, taxol 100 nM, 48 hr): 74.9 ± 1.8%
viability at 0.2 µM (Hep 3B cells; 48 h, read-out: Cell viability, taxol 200 nM, 48 hr): 64.7 ± 4.6%
viability at 0.5 µM (Hep 3B cells; 48 h, read-out: Cell viability, taxol 500 nM, 48 hr): 56.2 ± 0.8%
viability at 1 µM (Hep 3B cells; 48 h, read-out: Cell viability, taxol 1000 nM, 48 hr): 55.3 ± 0.5%
IC50 (Hep 3B cells; 48 h, read-out: IC50 (cell viability), 48 hr, Table 8): 1119 ± 10.1 nM
IC50 (Hep 3B cells; 48 h, read-out: IC50 (cell viability), 48 hr, Table 9): 45.9 nM
viability at 0.002 µM (Hep 3B cells; 72 h, read-out: Cell viability, taxol 2 nM, 72 hr): 94 ± 3.6%
